PMC7190830, “Neuromedin U signaling regulates retrieval of learned salt avoidance in a C. elegans gustatory circuit” (Nature Communications, 2020)
“And” between values parts separate entries of the source, which are not always exact repeats. Identical values can stand only once. Like-named read-outs stand apart in the source and are kept apart here. Blank lines part the entries; values can stand above or below the compound they belong to. No end group written: not given here.

Columns and labels:
C. elegans = assay: Optogenetic silencing of ASG during conditioning or navigation of a 0-50 mM NaCl gradient; format: in vivo; settings: ATR, single replicates
Text: From left to right n = 51, 59, 43, 44 animals per condition. […] (bottom panel). Scale bar, 20 µm. f Optogenetic silencing of ASG. Individual worms are illuminated with yellow–green light for silencing CAPA-1 neurons during conditioning (acquisition phase) or during the NaCl chemotaxis assay when worms are navigating a linear NaCl gradient (retrieval phase) (see Methods for details). Arch requires supplementation of the cofactor all-trans retinal (ATR) to the worm culture. Transgenic C. elegans not fed ATR-supplemented food serve as a negative control. After conditioning, worms are put in the middle of a chemotaxis plate with a linear NaCl gradient (0–50 mM) and kept in the field-of-view using an automated xy-stage. […] Corresponding biased random walk and klinotaxis indices shown in Supplementary Fig. 10a, b. The time interval for statistical comparison was reduced to 5 min to accommodate the small plate format. g, h From left to right n = 10, 12, 14, 14, 12, 12, 14, 11 animals per condition. Shaded regions on a and g represent S.E.M. while black bars indicate the time interval for calculating the mean gradient position and behavioral indices. Significances determined by two-way ANOVA with Tukey’s HSD post hoc test. n.s. not significant; *p ≤ 0.05; **p ≤ 0.01; ***p ≤ 0.001. Boxplots show medians, 25th and 75th percentiles as box limits. The whiskers extend to the most extreme data points not considered as outlier.
Transgenic worms expressing the outward-directed proton pump Arch in ASG were cultured at 25 °C on culture plates seeded with sufficient OP50 E. coli. One day before the assay, transgenic worms were transferred to OP50 culture plates to which all-trans retinal (ATR, Sigma Aldrich) has been added (300 µM final concentration in fresh OP50 liquid culture). This cofactor is needed for Arch activity, and allows transgenic worms transferred to culture plates without ATR to serve as negative control. A 0 to 50 mM linear gradient was generated in a 55 mm Petri plate. First, 15 mL buffered CTX agar supplemented with 50 mM NaCl was poured in a 55 mm diameter Petri dish elevated to one side. An additional 15.5 mL buffered CTX agar without NaCl was poured on top of the first triangular wedge once it solidified. NaCl was allowed to diffuse at least 24 h prior the assay. Individual worms were washed for 15 min in a small volume of CTX buffer with or without 100 mM NaCl (NaCl-conditioning or mock-conditioning). After conditioning the worm was transferred to the center of the 0 to 50 mM NaCl gradient plate, mounted on a Zeiss AxioObserver Z1 microscope. The animal was then allowed to navigate the plate for 10 min while an automated xy-stage kept it in the field-of-view. […] Each animal’s path was reconstructed based on the recorded low-resolution video-stream and the logged stage positions. The behavior was then segmented and indices reflecting chemotaxis behavior were calculated as described above.
Supplementary Fig. 10. Behavioral effects of silencing CAPA-1 neurons (related to Fig. 7) The inhibitory opsin Arch is expressed in ASG under control of the capa-1 promoter. Individual transgenic worms are illuminated with yellow-green light for ASG silencing while being conditioned, or when they are navigating an agar plates with a 0 to 50 mM NaCl linear gradient (a-b) or no gradient (c-d). Arch requires the cofactor all-trans retinal (ATR) to be supplemented to the worm culture.
Transgenic C. elegans not fed ATR-supplemented food serve as a negative control. See Methods for details. (a) Biased random walk and (b) klinotaxis indices for mock- and NaCl-conditioned animals navigating a 0 to 50 mM NaCl gradient. (a-b) From left to right n = 10, 12, 14, 14, 12, 12, 14, 11 animals per condition. (c) Mean speed of individual worms and (d) the fraction of time in each behavioral state when worms are navigating a plate without NaCl. From left to right n = 7, 7, 7, 7, 7, 7, 5, 7 animals per

NMUR-1 = molecular target: T1, NMUR-1 (Caenorhabditis elegans, UniProt Q18701); assay: Luminescence-based (aequorin) calcium mobilization assay for GPCR activation, NMUR-1 expressed in CHO cells; format: cell-based; settings: calcium response, aequorin luminescence 496 nm, 30 s, CHO K1 cells stably overexpressing apo-aequorin and human Gα16, transiently transfected nmur-1/pcDNA3.1, 0.1 nM to 100 µM, HPLC-purified peptides, read-out: EC50 (half maximal effective concentration) to activate NMUR-1
T1 sequence (Q18701 1-400): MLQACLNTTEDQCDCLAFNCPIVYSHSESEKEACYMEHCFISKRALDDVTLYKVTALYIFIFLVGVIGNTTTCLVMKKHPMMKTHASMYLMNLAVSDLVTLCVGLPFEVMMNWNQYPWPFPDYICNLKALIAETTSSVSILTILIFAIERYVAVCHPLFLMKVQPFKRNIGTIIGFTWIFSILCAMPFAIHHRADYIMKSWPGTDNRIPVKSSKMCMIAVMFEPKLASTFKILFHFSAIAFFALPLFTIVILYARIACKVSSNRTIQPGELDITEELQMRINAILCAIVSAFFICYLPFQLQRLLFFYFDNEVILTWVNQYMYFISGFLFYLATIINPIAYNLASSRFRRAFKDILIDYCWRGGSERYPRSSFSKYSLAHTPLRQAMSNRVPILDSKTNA
Text: Cells transfected with an empty pcDNA3.1 vector are used as a control. Error bars show S.E.M. CAPA-1-1 n = 6; CAPA-1-2 n = 6; CAPA-1-3 n = 5 experimental repeats. c The […] encodes a neuropeptide precursor that harbors three predicted peptide sequences (CAPA-1-1, -2, and -3), which are flanked by mono- and dibasic cleaving sites. Black bars indicate the positions of deletions in […]-44 mutant alleles used in this study. d Sequence comparison of C. elegans CAPA-1 neuropeptides and NmU neuropeptides from H. sapiens, D. rerio, and D. melanogaster. Conserved C-terminal features are highlighted in black. Residues with similar physicochemical properties are colored gray.

[1] = NaCl-conditioned, Time Window Silencing: Navi - Retrieval
[2] = NaCl-conditioned, Time Window Silencing: Wash - conditioning
[3] = mock-conditioned, Time Window Silencing: Navi - Retrieval
[4] = mock-conditioned, Time Window Silencing: Wash - conditioning
[5] = CAPA-1-1 n = 6, CAPA-1-3 n = 5 experimental repeats

Compound: CC1=C(/C=C/C(C)=C/C=C/C(C)=C/C=O)C(C)(C)CCC1 [ATR]
Fraction of time in Pause (C. elegans; [1]): 0
Fraction of time in Run (C. elegans; [1]): 0.741 and 0.8212 and 0.8921 and 0.8348 and 0.9414 and 0.927 and 0.8623
Fraction of time in Turn (C. elegans; [1]): 0.1151 and 0.03803 and 0.0668 and 0.04464 and 0.02467 and 0.01439
Fraction of time in Pause (C. elegans; [2]): 0
Fraction of time in Pirouette (C. elegans; [2]): 0.1562 and 0.1901 and 0.02158 and 0.1641 and 0.1069 and 0 and 0.05344
Fraction of time in Run (C. elegans; [2]): 0.7451 and 0.7688 and 0.9609 and 0.8359 and 0.888 and 0.9702 and 0.8828
Fraction of time in Turn (C. elegans; [2]): 0.09866 and 0.04111 and 0.01747 and 0 and 0.005139 and 0.0298 and 0.06372
Fraction of time in Pirouette (C. elegans; NaCl, Time Window Silencing: Navi - Retrieval): 0.1439 and 0.1408 and 0.04111 and 0.1205 and 0.03392 and 0.0483 and 0.1233
Fraction of time in Pause (C. elegans; [3]): 0
Fraction of time in Pirouette (C. elegans; [3]): 0.1326 and 0.1912 and 0.112 and 0.1439 and 0.1819 and 0.2179 and 0.1771
Fraction of time in Run (C. elegans; [3]): 0.7564 and 0.7081 and 0.7595 and 0.8171 and 0.6516 and 0.7513 and 0.7264
Fraction of time in Turn (C. elegans; [3]): 0.111 and 0.1007 and 0.1285 and 0.03905 and 0.1665 and 0.03083 and 0.0965
Fraction of time in Pause (C. elegans; [4]): 0
Fraction of time in Pirouette (C. elegans; [4]): 0.3217 and 0.03289 and 0 and 0.6616 and 0.1079 and 0.1788 and 0.04317
Fraction of time in Run (C. elegans; [4]): 0.6208 and 0.8756 and 0.9106 and 0.3384 and 0.8016 and 0.8068 and 0.9085
Fraction of time in Turn (C. elegans; [4]): 0.05755 and 0.09147 and 0.08941 and 0 and 0.09044 and 0.01439 and 0.0483

EC50 (NMUR-1; [5]): 0.142 µM
Compound: AFFYTPRI-NH2 [CAPA-1-3]

EC50 (NMUR-1; [5]): 0.006 µM
Compound: APHPSSALLVPYPRV-NH2 [CAPA-1-1]

EC50 (NMUR-1; CAPA-1-2 n = 6 experimental repeats): 8 µM
Compound: LYMARV-NH2 [CAPA-1-2]
